# Tested on: KRAS G12D knock-in MEFs
# Assay: KRAS-mediated mitochondrial fission in KRAS G12D knock-in MEFs
# Format: cell-based, mouse
# Conditions: 893 5 μM
# Method: 3T3-L1 cells were maintained in DMEM with 10% FBS and 1% penicillin-streptomycin until induced to differentiate. 3T3-L1 pre-adipocytes were differentiated as described in (M. P. Valley, et al., Anal. Biochem. 505: 43-50, 2016, the disclosure of which is incorporated herein by reference) with slight modifications. Briefly, pre-adipocytes were grown to confluence. After 2 d, cells were induced with maintenance media containing 500 μM IBMX (15879, Sigma-Aldrich, St. Louis, Mo.), 1 μM dexamethasone (D4902, Sigma-Aldrich), 5 μg/mL bovine insulin (10516, Sigma-Aldrich), and 5 μM troglitazone (50-115-0786, ApexBio). Media was changed every 2-3 d for 7 d. On day 7 post-induction, media was changed to maintenance media+5 μg/mL bovine insulin. On day 9 post-induction, media was changed to maintenance media. Mature adipocytes were used 12-14 d post-induction for all experiments. […]
# MEFs were washed twice with PBS and fixed with 4% paraformaldehyde for 10 min at RT. […] NADH/NADPH autofluorescence was detected with 740 nm excitation and 450±50 nm detectors using a Mai Tai two-photon laser. Fluorescence microscopy was performed on a Zeiss LSM 780 confocal using a 63× oil objective with a […] numerical aperture (NA) or using a Nikon TE2000-S inverted epifluorescence microscope with a 100× oil objective (1.3 NA) and a Photometrics CoolSNAP ES2 monochrome CCD camera. […]
smiles,measurement,value
CCCCCCCCc1ccc([C@H]2CCN[C@@H]2CO)cc1.Cl [compound 893],Correction of KRAS-mediated mitochondrial fission in KRAS G12D MEFs,rapidly corrected KRAS-mediated mitochondrial fission
